Source: publication PMC8997437, “Apelin Resistance Contributes to Muscle Loss during Cancer Cachexia in Mice” (Cancers, 2022)
Entries after “also recorded” stand apart in the source; their conditions may differ.

Experiments:
[1] = test system: MuRF1, atrogin-1 and apelin mRNA in myotubes; assay: Q-PCR of atrophy-related genes in myotubes; assay type: cell-based, mouse; details: 10 μM Dexa, 24 h, TBP housekeeping, n = 6
Description: Total RNA was isolated from cells or muscles with QIAzol Lysis Reagent (Qiagen, Hilden, Germany) and miRNeasy Kit (Qiagen), as in [31]. RNA concentration and purity were measured in a spectrophotometer (NanoDrop 1000, ThermoFisher Scientific, Waltham, MA, USA).
mRNA/μg in muscle was analyzed using TaqMan reverse transcription reagents (Life Technologies) or SYBR Green (Qiagen). β-Glucuronidase (GUSB), or Tata binding protein (TBP), or Importin 8 (IPO8), or 18S ribosomal RNA (18S) were used as housekeeping genes (HK). To normalize for three HK, we used the ratio between the arithmetic average and the geometric average of the ng of cDNA of each gene, as described in [32].
TBP was used as housekeeping gene.

C2C12 myotubes [2] = assay: Total protein content of myotubes; assay type: cell-based, mouse; details: 10 μM dexamethasone, n = 6
Description: Total proteins were extracted from myotubes and muscles and quantitated as in [31]. Proteins were separated by electrophoresis on 4–20% sodium dodecyl sulfate-polyacrylamide gel electrophoresis (SDS-PAGE) (Bio-Rad, Hercules, CA, USA) and transferred to a polyvinylidene difluoride membrane (GE Healthcare, Chicago, IL, USA), which was then saturated for 2 h at RT with 5% bovine serum albumin (BSA) or milk in TBS-T buffer (20 mM Tris, 150 mM NaCl and 0.1% Tween-20) (Sigma). […] Band intensities were analyzed using ImageJ software.

MuRF1 promoter = assay: MuRF1 promoter-Firefly luciferase reporter assay in myoblasts; assay type: cell-based, mouse; details: 10 μM dexamethasone, 24 h, normalised to RLuc, n = 12
Description: We used C2C12 myoblasts grown in a 24-well plate and transfected with pLKO or preproapelin-expressing plasmids with murine MuRF1 promoter-FLuc plasmid, and pRL-TK plasmid (Promega) using Lipofectamine 2000 (Life Technologies Europe BV, Carlsbad, CA, USA). The next day, they were treated with vehicle or 10 μM dexamethasone for 24 h. Luciferase activities were measured using the Dual-Luciferase Reporter Assay System (Promega) and a luminometer (Glomax 20/20 single tube luminometer, Promega).
Myoblasts were transfected with a plasmid in which Firefly luciferase (FLuc) is under the control of a MuRF1 promoter, with another for Renilla luciferase (RLuc), under the control of thymidine kinase promoter to normalize the data (ratio 50:1) and with the empty vector pLKO, as control, or a preproapelin-expressing plasmid (Apln). After 24 h, myoblasts were treated with vehicle or with 10 μM Dexa for 24 h. […] Ordinary one-way ANOVA, ** p ≤ 0.01, **** p ≤ 0.0001, n = 12.

[3] = test system: cAMP-responsive elements (CRE); assay: CRE-luciferase (cAMP) reporter assay in transfected myoblasts, forskolin induction; assay type: cell-based, mouse; details: 50 μM forskolin, 5 h
Excerpt: To test whether D-apelin still binds APJ, ultimately lowering cAMP levels, we transfected myoblasts with a reporter plasmid with the gene for FLuc under the control of cAMP-responsive elements (CRE). […] As expected, forskolin induced the CRE-related bioluminescent signal more than 20-fold (Figure 4C).

C2C12 myotubes [4] = assay: Myotube diameter measurement (dexamethasone-induced atrophy); assay type: cell-based, mouse; details: four day-differentiated myotubes, 24 h; for protection of myotube diameter from dexamethasone-induced atrophy: 10 μM dexamethasone plus 10 nM peptide, n = 261–297
Description: C2C12 (ATCC, Manassas, VA, USA), a myoblast cell line from the C3H mouse strain, was grown in DMEM (Dulbecco’s Modified Eagle’s Medium, Gibco, Waltham, MA, USA) with fetal bovine serum (FBS) (Euroclone, Pero, Italy) and 2 mM L-glutamine, (BioWest, Nuaillè, France) and maintained in culture at 37 °C with 5% CO2. Myoblasts differentiate into myotubes when they reached 80% confluence and were cultured for four days in DMEM, 2 mM L-glutamine, horse serum (HS) (Euroclone), at 37 °C and 8% CO2. The differentiation medium was changed every two days.
Pictures of myotubes were acquired with an Olympus Microscope IX71 (10× magnification, 10× ocular lens, Olympus, Shinjuku, Japan) with Cell F (2.6 Build1210, Olympus) imaging software for Life Science microscopy (Olympus Soft Imaging solution GmbH, Munster, Germany). Myotube diameters were measured in blind conditions using ImageJ software (National Institutes of Health, Bethesda, MA, USA). For each photo 10–11 myotubes were measured, calculating the mean of three diameters per myotube, for a total of at least 100 cells per condition.
Four day-differentiated myotubes were exposed for 24 h to vehicle (Ctrl) or 10 μM dexamethasone (Dexa) and representative brightfield images are shown. […] We measured in blind the diameter of four day-differentiated myotubes exposed for 24 h to vehicle or 10 μM Dexamethasone (DEXA) in combination with vehicle or 10 nM apelin peptides of different lengths. […] Kruskal–Wallis test, **** p ≤ 0.0001, n = 261–297.

APJ = details: cited from earlier work

## C[C@@H]1C[C@H]2[C@@H]3CCC4=CC(=O)C=C[C@]4(C)[C@@]3(F)[C@@H](O)C[C@]2(C)[C@@]1(O)C(=O)CO [dexamethasone, Dexamethasone]
[1]
  apelin expression (mRNA): halved
  increase of MuRF1 expression (mRNA): about 3 fold
  increase of atrogin-1 expression (mRNA): 3 fold
C2C12 myotubes [2]
  reduction of total protein content: about 25%
MuRF1 promoter
  increase of FLuc expression under MuRF1 promoter: ~15 fold

## C=C[C@@]1(C)CC(=O)[C@]2(O)[C@@]3(C)[C@@H](O)CCC(C)(C)[C@@H]3[C@H](O)[C@H](OC(C)=O)[C@@]2(C)O1 [forskolin]
[3]
  induction of CRE-related bioluminescent signal: more than 20 fold

## [Pyr1]-Apelin 13 [L-apelin 13]
C2C12 myotubes [4]
  protection of myotube diameter from dexamethasone-induced atrophy: fully protects myotubes from dexamethasone-induced atrophy; also recorded: fully preserved myotube diameter
APJ
  affinity for APJ: nanomolar affinity

## apelin 36: apelin isoform of 36 amino acids binding APJ (Tocris) (LVQPRGSRNGPGPWQGGRRKFRRQRPRLSHKGPMPF; Apelin-36; UniProt Q9ULZ1 42-77, looked up)
C2C12 myotubes [4]; 10 nM peptide with vehicle
  effect of peptide alone on myotube diameter: reduced myotube diameters
C2C12 myotubes [4]
  protection of myotube diameter from dexamethasone-induced atrophy: Unlike apelin 36, apelin 13 fully protects
